Source: patent EP2924039A1, “2-Amino-1-phenyl-pyrrolo[3,2-b]quinoxaline-3-carboxamide derivates” (Universität Zürich, priority 2014, dated 2015)

Key:
full-length human EphB4 = target: T1, full-length human EphB4 (Homo sapiens, UniProt P54760); test: Cellular phosphorylation assay (sandwich ELISA, ProQinase); assay type: cell-based; settings: mouse embryonic fibroblast cells overexpressing EphB4, stimulated with murine ephrinB2-Fc, read-out: cell IC50
T1 construct: stably transfected to overexpress full-length human EphB4; host or cells: Mouse embryonic fibroblast cells
T1 sequence (P54760 16-987): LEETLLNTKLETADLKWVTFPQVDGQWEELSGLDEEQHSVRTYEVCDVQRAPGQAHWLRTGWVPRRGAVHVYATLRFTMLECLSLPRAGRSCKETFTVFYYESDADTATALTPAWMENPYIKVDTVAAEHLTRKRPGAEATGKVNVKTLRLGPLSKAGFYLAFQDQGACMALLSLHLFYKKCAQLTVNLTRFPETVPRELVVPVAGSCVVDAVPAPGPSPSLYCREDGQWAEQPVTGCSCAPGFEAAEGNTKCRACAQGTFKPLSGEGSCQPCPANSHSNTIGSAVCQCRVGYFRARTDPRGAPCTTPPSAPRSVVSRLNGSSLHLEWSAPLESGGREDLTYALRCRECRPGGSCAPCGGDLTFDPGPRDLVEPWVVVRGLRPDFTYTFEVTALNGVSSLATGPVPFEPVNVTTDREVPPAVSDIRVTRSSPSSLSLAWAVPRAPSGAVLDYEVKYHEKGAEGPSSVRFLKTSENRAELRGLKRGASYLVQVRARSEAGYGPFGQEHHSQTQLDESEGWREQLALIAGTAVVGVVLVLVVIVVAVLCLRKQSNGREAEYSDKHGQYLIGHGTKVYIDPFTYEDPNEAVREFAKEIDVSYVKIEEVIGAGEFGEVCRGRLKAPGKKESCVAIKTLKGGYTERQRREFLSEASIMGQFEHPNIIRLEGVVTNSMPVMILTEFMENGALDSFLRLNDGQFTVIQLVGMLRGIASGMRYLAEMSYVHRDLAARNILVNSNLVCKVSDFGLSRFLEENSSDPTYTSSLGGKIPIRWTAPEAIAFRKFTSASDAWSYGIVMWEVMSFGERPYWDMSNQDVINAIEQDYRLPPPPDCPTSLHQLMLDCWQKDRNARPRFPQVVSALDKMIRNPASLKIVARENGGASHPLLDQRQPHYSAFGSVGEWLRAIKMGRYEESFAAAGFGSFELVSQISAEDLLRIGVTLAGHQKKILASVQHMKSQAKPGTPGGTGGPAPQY
Description: Cellular phosphorylation assays: The cellular phosphorylation experiments were performed at ProQinase GmbH. Mouse embryonic fibroblast cells, stably transfected to overexpress full-length human EphB4, were plated at 4×10^4 cells/well in DMEM supplemented with 10% FCS in 48-well culture dishes. Medium was replaced by DMEM without FCS before test compounds prediluted in 100% DMSO were added (final DMSO concentration of 1 %). After incubation for 90 min at 37 °C, cells were stimulated for 2 h at 4 °C using murine ephrinB2-Fc at a final concentration of 2 µg/ml. Quantification of EphB4 phosphorylation was assessed in a 96-well plate via sandwich ELISA using a myc capture antibody and an antiphosphotyrosine detection antibody. Table 4: Cell IC50 (µmol/l) in cells overexpressing EphB4

EphA3 = target: T2, EphA3 (Homo sapiens, UniProt P29320); test: Differential Scanning Fluorimetry; assay type: binding; settings: 2 µM EphA3, compound 20µM; read-out: Delta Tm
T2 construct: A clone of EphA3 kinase domain (residues: 606-947); made in house; host or cells: Escherichia coli BL21 (DE3)
T2 sequence (P29320 606-947): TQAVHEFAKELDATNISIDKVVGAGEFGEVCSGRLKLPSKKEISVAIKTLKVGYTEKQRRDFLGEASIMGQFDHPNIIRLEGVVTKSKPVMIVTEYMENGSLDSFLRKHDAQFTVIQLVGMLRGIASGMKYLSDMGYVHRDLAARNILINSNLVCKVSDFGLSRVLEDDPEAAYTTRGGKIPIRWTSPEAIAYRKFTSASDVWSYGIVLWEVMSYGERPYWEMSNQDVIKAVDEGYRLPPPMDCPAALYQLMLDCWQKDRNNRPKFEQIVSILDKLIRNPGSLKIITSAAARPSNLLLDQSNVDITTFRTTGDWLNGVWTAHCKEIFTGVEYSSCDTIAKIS
Description: Cell pellets were resuspended in buffer A (50mM Tris, pH 8.0 and 100mM NaCl, supplemented with protease inhibitors) and lysed by sonication. After centrifugation at 15,000 rpm for 1 h, the soluble fraction of EphA3 was purified using […] (GE healthcare), followed by gel filtration chromatography (Superdex75; GE healthcare). The appropriate fractions were combined and concentrated to ~10 mg/mL using Amicon filter devices (10kDa as cutoff) in a storage solution (100mM sodium chloride and 10mM Tris-HCl pH 8.0, 5% glycerol). The resulting solution was aliquoted and stored at -80°C for further usage.
A final volume of 40µL was added per well in a 96 well plate and incubated at room temperature for 1 h. The plates were centrifuged for 3 min at 450 rcf. The temperature gradient was performed in the range of 25°C-75°C (50 acquisitions per degree at a ramp rate of 4.4°C/s) using a LightCycler 480 Real-Time PCR System. […] All measurements were performed in triplicate.

NC(=O)c1c(N)n(-c2cccc(C(=O)Nc3cccc(C(F)(F)F)c3)c2)c2nc3ccccc3nc12 [Compound 10c, 2-amino-1-(3-((3-(trifluoromethyl)phenyl)carbamoyl)phenyl)-1H-pyrrolo[2,3-b]quinoxaline-3-carboxamide]
IC50 (full-length human EphB4): 16 nM | ΔTm at 20 µM (EphA3): 9.1 °C

NC(=O)c1c(N)n(-c2cccc(NC(=O)c3cccc(C(F)(F)F)c3)c2)c2nc3ccccc3nc12 [Compound 10d, 2-amino-1-(3-(3-(trifluoromethyl)benzamido)phenyl)-1H-pyrrolo[2,3-b]quinoxaline-3-carboxamide]
IC50 (full-length human EphB4): 20 nM | ΔTm at 20 µM (EphA3): 7.6 °C
